Experimental data published in the supplement of paper PMC10307832.

Experiments:
Assay in all cases: relative viability (nuclei count vs DMSO), 5 days (fraction); higher = more cells survive
Sorafenib + Navitoclax = compound: CNC(=O)c1cc(Oc2ccc(NC(=O)Nc3ccc(Cl)c(C(F)(F)F)c3)cc2)ccn1 [Sorafenib] + CC1(C)CCC(c2ccc(Cl)cc2)=C(CN2CCN(c3ccc(C(=O)NS(=O)(=O)c4ccc(N[C@H](CCN5CCOCC5)CSc5ccccc5)c(S(=O)(=O)C(F)(F)F)c4)cc3)CC2)C1 [Navitoclax] (partner 0.5 µM)
How it was run: (§1)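 Medians of duplicate plates are given as relative viability. That measure is the nuclei count in treated wells divided by the count in vehicle wells. Counts were taken on 4× images of lung cancer cell lines in 1536-well plates, 5 days after pin-tool dosing the day after seeding with one drug alone or a fixed anchor-drug dose plus five library-drug doses (not always all listed) in √10 steps.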

Sorafenib + Foretinib = compound: CNC(=O)c1cc(Oc2ccc(NC(=O)Nc3ccc(Cl)c(C(F)(F)F)c3)cc2)ccn1 [Sorafenib] + COc1cc2c(Oc3ccc(NC(=O)C4(C(=O)Nc5ccc(F)cc5)CC4)cc3F)ccnc2cc1OCCCN1CCOCC1 [Foretinib] (partner 0.25 µM)
How it was run: as §1

Sorafenib + OSI-027 = compound: CNC(=O)c1cc(Oc2ccc(NC(=O)Nc3ccc(Cl)c(C(F)(F)F)c3)cc2)ccn1 [Sorafenib] + COc1cccc2cc(-c3nc([C@H]4CC[C@H](C(=O)O)CC4)n4ncnc(N)c34)[nH]c12 [OSI-027] (partner 0.5 µM)
How it was run: as §1

Sorafenib + Alpelisib = compound: CNC(=O)c1cc(Oc2ccc(NC(=O)Nc3ccc(Cl)c(C(F)(F)F)c3)cc2)ccn1 [Sorafenib] + Cc1nc(NC(=O)N2CCC[C@H]2C(N)=O)sc1-c1ccnc(C(C)(C)C(F)(F)F)c1 [Alpelisib] (partner 2 µM)
How it was run: as §1

Sorafenib + Olaparib = compound: CNC(=O)c1cc(Oc2ccc(NC(=O)Nc3ccc(Cl)c(C(F)(F)F)c3)cc2)ccn1 [Sorafenib] + O=C(c1cc(Cc2n[nH]c(=O)c3ccccc23)ccc1F)N1CCN(C(=O)C2CC2)CC1 [Olaparib] (partner 8 µM)
How it was run: as §1

| Cell Line | relative viability (Sorafenib + Navitoclax; first compound 0.08 µM) | relative viability (Sorafenib + Navitoclax; first compound 0.253 µM) | relative viability (Sorafenib + Navitoclax; first compound 2.53 µM) | relative viability (Sorafenib + Navitoclax; first compound 8 µM) | relative viability (Sorafenib + Foretinib; first compound 0.253 µM) | relative viability (Sorafenib + Foretinib; first compound 2.53 µM) | relative viability (Sorafenib + Foretinib; first compound 8 µM) | relative viability (Sorafenib + OSI-027; first compound 0.08 µM) | relative viability (Sorafenib + OSI-027; first compound 0.253 µM) | relative viability (Sorafenib + OSI-027; first compound 8 µM) | relative viability (Sorafenib + Alpelisib; first compound 0.08 µM) | relative viability (Sorafenib + Alpelisib; first compound 0.253 µM) | relative viability (Sorafenib + Alpelisib; first compound 2.53 µM) | relative viability (Sorafenib + Alpelisib; first compound 8 µM) | relative viability (Sorafenib + Olaparib; first compound 0.08 µM) | relative viability (Sorafenib + Olaparib; first compound 0.253 µM) | relative viability (Sorafenib + Olaparib; first compound 2.53 µM) | relative viability (Sorafenib + Olaparib; first compound 8 µM) | relative viability (Sorafenib + Foretinib; first compound 0.08 µM) | relative viability (Sorafenib + OSI-027; first compound 2.53 µM) |
| --- | --- | --- | --- | --- | --- | --- | --- | --- | --- | --- | --- | --- | --- | --- | --- | --- | --- | --- | --- | --- |
| LXF-289 | 0.971 | 0.959 | 0.999 | 0.943 | 0.992 | 1.06 | 0.943 | 0.787 | 0.814 | 0.764 | 1.09 | 1.04 | 1.05 | 1.02 | 1.03 | 1.04 | 1.01 | 0.96 |  |  |
| NCI-H23 | 0.996 | 0.768 | 0.806 | 0.705 | 0.977 | 0.833 | 0.871 |  | 0.501 | 0.398 | 0.74 | 0.632 | 0.745 | 0.498 | 0.31 | 0.249 | 0.343 | 0.266 | 1.03 | 0.488 |
| NCI-H322M | 1.19 | 1.25 | 1.34 | 1.16 | 0.994 | 1.14 | 1.05 | 0.615 | 0.48 | 0.587 | 0.815 | 0.916 | 0.877 | 0.84 | 0.903 | 0.66 | 0.678 | 0.918 | 1.19 | 0.542 |
| NCI-H441 | 0.488 | 0.431 | 0.471 | 0.417 |  | 0.957 | 0.782 | 0.588 |  | 0.297 | 0.683 | 0.522 | 0.5 | 0.538 | 0.593 | 0.5 | 0.455 | 0.308 | 1.11 | 0.423 |
| NCI-H460 | 1.2 | 1.02 | 1.12 | 0.231 | 0.997 | 0.972 | 0.622 | 0.761 | 0.596 | 0.0191 | 0.594 | 0.643 | 0.566 | 0.103 | 0.399 | 0.335 | 0.345 | 0.324 | 0.972 | 0.459 |
| NCI-H520 | 1.21 | 1.08 |  | 0.358 | 0.71 | 0.736 | 0.406 | 0.352 | 0.254 | 0.246 | 0.963 | 0.89 | 0.902 | 0.526 | 0.356 | 0.281 | 0.313 | 0.126 | 0.71 | 0.246 |
| NCI-H596 | 0.892 | 1.13 | 1.02 | 1.02 | 0.958 | 0.866 | 0.66 | 0.732 | 0.664 | 0.447 | 0.471 | 0.447 | 0.521 | 0.509 | 0.773 | 0.73 | 0.751 | 0.79 | 0.73 | 0.671 |
| NCI-H647 | 1.2 | 1.09 | 0.97 | 0.538 | 1 | 0.987 | 0.48 | 0.62 | 0.634 | 0.427 | 1.1 |  | 0.872 |  | 0.568 | 0.524 | 0.356 | 0.0229 | 1.25 | 0.506 |
| NCI-H727 | 0.604 | 0.632 | 0.675 | 0.369 | 1.11 | 0.909 | 0.739 | 0.688 | 0.542 | 0.508 | 0.623 | 0.579 | 0.702 | 0.326 | 0.826 | 0.666 | 0.693 | 0.659 | 0.936 | 0.619 |
| NCI-H838 | 1.23 | 1.26 | 1.29 |  | 1.04 | 1.28 | 0.685 | 0.52 | 0.438 | 0.539 | 1.08 | 1.1 | 1.15 | 0.905 | 0.776 | 0.744 | 0.735 | 0.215 | 1.12 | 0.615 |
| NCI-H1355 | 0.916 | 0.983 | 0.86 | 0.668 | 0.971 | 0.937 |  | 0.459 | 0.38 | 0.336 | 0.887 | 0.767 | 0.784 | 0.778 |  | 0.753 | 0.685 | 0.411 | 1.08 | 0.512 |
| NCI-H1395 | 1.35 | 1.08 | 1.1 | 1.05 | 0.931 | 1.04 | 0.854 | 0.691 | 0.562 | 0.459 | 1.26 |  | 0.981 | 0.695 | 0.517 |  | 0.515 | 0.394 | 1.08 | 0.72 |
| NCI-H1437 | 1.05 | 1.03 | 0.91 | 0.438 | 1.17 | 1.13 | 0.742 | 0.949 | 0.676 | 0.558 | 1.01 | 0.922 | 0.905 | 0.546 | 0.633 | 0.585 | 0.493 | 0.254 | 1.26 | 0.8 |
| NCI-H1651 | 1.04 | 0.985 | 1.04 | 0.472 |  | 0.787 | 0.515 | 0.777 | 0.687 | 0.622 | 0.979 | 0.981 | 0.996 | 0.547 | 0.18 | 0.174 | 0.187 | 0.178 | 0.923 | 0.655 |
| NCI-H1666 | 1.01 | 0.953 | 0.752 | 0.577 | 0.93 |  | 0.889 | 0.912 | 0.781 | 0.692 | 0.849 | 0.93 | 0.782 | 0.537 | 0.785 | 0.765 | 0.721 |  | 0.976 | 0.798 |
| NCI-H1734 | 0.858 | 0.721 | 0.721 | 0.492 | 0.769 | 0.682 | 0.41 | 0.585 | 0.534 | 0.318 | 0.685 | 0.654 | 0.633 | 0.568 | 0.609 | 0.541 | 0.563 | 0.601 | 1.05 | 0.584 |
